Measurements as given in patent publication US11702404B2, “GLP-1R modulating compounds” (priority 2019, dated 2023).

How the values were obtained:
GLP-1R = GLP-1R (Homo sapiens, UniProt P43220); assay: GLP-1R activation: cAMP increase in CHO cells stably expressing GLP-1R; format: cell-based; conditions: cAMP increase, CHO cells stably expressing GLP-1R, 10 point dose response, 30 minutes incubation; read-out: EC50
[1] = Microsomal stability, human liver microsomes (predicted hepatic clearance); conditions: predicted from in vitro microsomal stability data

Chain of GLP-1R (P43220 24-463): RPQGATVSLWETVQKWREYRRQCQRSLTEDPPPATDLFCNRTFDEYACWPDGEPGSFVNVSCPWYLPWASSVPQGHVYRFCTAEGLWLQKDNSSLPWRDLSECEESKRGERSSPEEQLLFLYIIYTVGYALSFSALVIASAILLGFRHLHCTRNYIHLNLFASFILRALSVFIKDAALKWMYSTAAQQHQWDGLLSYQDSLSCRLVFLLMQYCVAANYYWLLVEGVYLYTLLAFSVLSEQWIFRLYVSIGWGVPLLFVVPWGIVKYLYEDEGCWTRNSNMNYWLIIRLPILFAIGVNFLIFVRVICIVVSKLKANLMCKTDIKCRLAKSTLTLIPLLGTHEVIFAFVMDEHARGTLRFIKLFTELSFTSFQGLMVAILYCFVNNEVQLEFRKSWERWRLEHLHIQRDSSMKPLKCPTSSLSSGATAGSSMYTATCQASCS

Compound: N#CCC1(Cn2c(Cc3ccc(-c4ccnc(OCc5ccc(C#N)cc5F)n4)c(F)c3)nc3c(F)cc(C(=O)O)cc32)CC1 [Example 303, 2-(4-(2-((4-cyano-2-fluorobenzyl)oxy)pyrimidin-4-yl)-3-fluorobenzyl)-1-((1-(cyanomethyl)cyclopropyl)methyl)-4-fluoro-1H-benzo[d]imidazole-6-carboxylic acid]
- EC50 (GLP-1R): 1.33 nM
- Predicted Hepatic Clearance (Pred. Cl.) [1]: 4 mL/min/kg

Compound: COCCn1c(C(C)c2ccc(-c3cccc(OCc4ccc(C#N)cc4F)n3)cc2)nc2ccc(C(=O)O)cc21 (single isomer, unassigned) [Example 418, 2-(1-(4-(6-((4-cyano-2-fluorobenzyl)oxy)pyridin-2-yl)phenyl)ethyl)-1-(2-methoxyethyl)-1H-benzo[d]imidazole-6-carboxylic acid]
- EC50 (GLP-1R): 18.3 nM
- Predicted Hepatic Clearance (Pred. Cl.) [1]: 4.83 mL/min/kg

Compound: N#Cc1ccc(COc2cccc(-c3ccc(Cc4nc5ccc(C(=O)O)cc5n4Cc4cnco4)c(F)c3)n2)c(F)c1 [Example 402, 2-(4-(6-((4-cyano-2-fluorobenzyl)oxy)pyridin-2-yl)-2-fluorobenzyl)-1-(oxazol-5-ylmethyl)-1H-benzo[d]imidazole-6-carboxylic acid]
- EC50 (GLP-1R): 2.11 nM
- Predicted Hepatic Clearance (Pred. Cl.) [1]: 12 mL/min/kg

Compound: COCCn1c(Cc2cc(F)c(-c3cccc(OCc4ccc(C(F)F)cc4F)n3)cc2F)nc2ccc(C(=O)O)cc21 [Example 544, 2-(4-(6-((4-(difluoromethyl)-2-fluorobenzyl)oxy)pyridin-2-yl)-2,5-difluorobenzyl)-1-(2-methoxyethyl)-1H-benzo[d]imidazole-6-carboxylic acid]
- EC50 (GLP-1R): 0.96 nM
- Predicted Hepatic Clearance (Pred. Cl.) [1]: 3.17 mL/min/kg

Compound: CCn1nccc1Cn1c(Cc2ccc(-c3cccc(OCc4ccc(C#N)cc4F)n3)c(F)c2)nc2ccc(C(=O)O)cc21 [Example 533, 2-(4-(6-((4-cyano-2-fluorobenzyl)oxy)pyridin-2-yl)-3-fluorobenzyl)-1-((1-ethyl-1H-pyrazol-5-yl)methyl)-1H-benzo[d]imidazole-6-carboxylic acid]
- EC50 (GLP-1R): 47.1 nM
- Predicted Hepatic Clearance (Pred. Cl.) [1]: 10 mL/min/kg

Compound: N#Cc1ccc(COc2cccc(-c3ccc(Cc4nc5ccc(C(=O)O)nc5n4CC4(CF)CC4)cc3F)n2)c(F)c1 [Example 277, 2-(4-(6-((4-cyano-2-fluorobenzyl)oxy)pyridin-2-yl)-3-fluorobenzyl)-3-((1-(fluoromethyl)cyclopropyl)methyl)-3H-imidazo[4,5-b]pyridine-5-carboxylic acid]
- EC50 (GLP-1R): 1.57 nM
- Predicted Hepatic Clearance (Pred. Cl.) [1]: 7.17 mL/min/kg

Compound: COCCn1c(Cc2ccc(-c3cccc(OCc4cccc5c4OCCO5)n3)cc2F)nc2ccc(C(=O)O)cc21 [Example 348, 2-(4-(6-((2,3-dihydrobenzo[b][1,4]dioxin-5-yl)methoxy)pyridin-2-yl)-2-fluorobenzyl)-1-(2-methoxyethyl)-1H-benzo[d]imidazole-6-carboxylic acid]
- EC50 (GLP-1R): 48.1 nM
- Predicted Hepatic Clearance (Pred. Cl.) [1]: 9.5 mL/min/kg

Compound: COCCn1c(Cc2ccc(-c3cccc(OCc4ccccc4NS(C)(=O)=O)n3)cc2F)nc2ccc(C(=O)O)cc21 [Example 516, 2-(2-fluoro-4-(6-((2-(methylsulfonamido)benzyl)oxy)pyridin-2-yl)benzyl)-1-(2-methoxyethyl)-1H-benzo[d]imidazole-6-carboxylic acid]
- EC50 (GLP-1R): 2460 nM
- Predicted Hepatic Clearance (Pred. Cl.) [1]: <1.83 mL/min/kg

Compound: COCCn1c(Cc2cc(F)c(-c3nc(OCc4ccc(C#N)cc4F)ccc3F)cc2F)nc2ccc(C(=O)O)cc21 [Example 202, 2-(4-(6-((4-cyano-2-fluorobenzyl)oxy)-3-fluoropyridin-2-yl)-2,5-difluorobenzyl)-1-(2-methoxyethyl)-1H-benzo[d]imidazole-carboxylic acid]
- EC50 (GLP-1R): 3.34 nM
- Predicted Hepatic Clearance (Pred. Cl.) [1]: 5.25 mL/min/kg

Compound: N#Cc1ccc(COc2cccc(-c3cc(F)c(Cc4nc5ccc(C(=O)O)cc5n4CC45CCC(CO4)C5)cc3F)n2)c(F)c1 (stereo not shown) [Example 738]
- EC50 (GLP-1R): 1.87 nM
- Predicted Hepatic Clearance (Pred. Cl.) [1]: 9.33 mL/min/kg

Compound: COCCn1c(Cc2ccc(-c3conc3OCc3ccc(C#N)cc3F)cc2F)nc2ccc(C(=O)O)cc21 [Example 80, 2-(4-(3-((4-cyano-2-fluorobenzyl)oxy)isoxazol-4-yl)-2-fluorobenzyl)-1-(2-methoxyethyl)-1H-benzo[d]imidazole-6-carboxylic acid]
- EC50 (GLP-1R): 2630 nM
- Predicted Hepatic Clearance (Pred. Cl.) [1]: 5.17 mL/min/kg

Compound: N#Cc1ccc(COc2cccc(-c3ccc(Cc4nc5ccc(C(=O)O)cc5n4C[C@@H]4CCCO4)cc3F)n2)c(F)c1 [Example 834]
- EC50 (GLP-1R): 0.69 nM
- Predicted Hepatic Clearance (Pred. Cl.) [1]: 6.33 mL/min/kg

Compound: COCCn1c(Cc2ccc(-c3cccc(OCc4ccc(C#N)cc4F)n3)cc2C#CC2(C)COC2)nc2ccc(C(=O)O)cc21 [Example 232, 2-(4-(6-((4-cyano-2-fluorobenzyl)oxy)pyridin-2-yl)-2-((3-methyloxetan-3-yl)ethynyl)benzyl)-1-(2-methoxyethyl)-1H-benzo[d]imidazole-6-carboxylic acid]
- EC50 (GLP-1R): 17.8 nM
- Predicted Hepatic Clearance (Pred. Cl.) [1]: 18.7 mL/min/kg

Compound: COCCn1c(Cc2ccc(-c3cc(F)cc(OCc4ccc(C#N)cc4OC)n3)cc2F)nc2ccc(C(=O)O)cc21 [Example 77, 2-(4-(6-((4-cyano-2-methoxybenzyl)oxy)-4-fluoropyridin-2-yl)-2-fluorobenzyl)-1-(2-methoxyethyl)-1H-benzo[d]imidazole-6-carboxylic]
- EC50 (GLP-1R): 0.19 nM
- Predicted Hepatic Clearance (Pred. Cl.) [1]: 9.17 mL/min/kg

Compound: COCCn1c(Cc2cc(F)c(-c3cccc(OCc4cnc(C(F)(F)F)s4)n3)cc2F)nc2ccc(C(=O)O)cc21 [Example 862]
- EC50 (GLP-1R): 16.2 nM
- Predicted Hepatic Clearance (Pred. Cl.) [1]: 4.33 mL/min/kg

Compound: N#Cc1ccc(COc2cccc(-c3cc(F)c(Cc4nc5ccc(C(=O)O)cc5n4CC45CC(C#N)(CO4)C5)cc3F)n2)c(F)c1 [Example 575, 2-(4-(6-((4-cyano-2-fluorobenzyl)oxy)pyridin-2-yl)-2,5-difluorobenzyl)-1-((4-cyano-2-oxabicyclo[2.1.1]hexan-1-yl)methyl)-1H-benzo[d]imidazole-6-carboxylic acid]
- EC50 (GLP-1R): 37.2 nM
- Predicted Hepatic Clearance (Pred. Cl.) [1]: 8.67 mL/min/kg

Compound: COC(Cn1c(Cc2ccc(-c3cccc(OCc4ccc(C#N)cc4F)n3)cc2F)nc2ccc(C(=O)O)cc21)C(N)=O (single isomer, unassigned) [Example 334, 1-(3-amino-2-methoxy-3-oxopropyl)-2-(4-(6-((4-cyano-2-fluorobenzyl)oxy)pyridin-2-yl)-2-fluorobenzyl)-1H-benzo[d]imidazole-6-carboxylic acid]
- EC50 (GLP-1R): 7.11 nM
- Predicted Hepatic Clearance (Pred. Cl.) [1]: 3.3 mL/min/kg

Compound: N#Cc1ccc(COc2nc(-c3cc(F)c(Cc4nc5c(F)cc(C(=O)O)cc5n4CC4(CF)CC4)cc3F)ncc2F)c(F)c1 [Example 167, 2-(4-(4-((4-cyano-2-fluorobenzyl)oxy)-5-fluoropyrimidin-2-yl)-2,5-difluorobenzyl)-4-fluoro-1-((1-(fluoromethyl)cyclopropyl)methyl)-1H-benzo[d]imidazole-6-carboxylic acid]
- EC50 (GLP-1R): 0.11 nM
- Predicted Hepatic Clearance (Pred. Cl.) [1]: 6 mL/min/kg

Compound: COCCn1c(C2OCCc3cc(-c4cccc(OCc5ccc(C#N)cc5F)n4)ccc32)nc2ccc(C(=O)O)cc21 (stereo not shown) [Example 37, 2-(6-(6-((4-cyano-2-fluorobenzyl)oxy)pyridin-2-yl)isochroman-1-yl)-1-(2-methoxyethyl)-1H-benzo[d]imidazole-carboxylic acid]
- EC50 (GLP-1R): 927 nM
- Predicted Hepatic Clearance (Pred. Cl.) [1]: 8.67 mL/min/kg

Compound: COCCn1c(C2OCCc3cc(-c4cccc(OCc5ccc(C#N)cc5F)n4)ccc32)nc2ccc(C(=O)O)cc21 (single isomer, unassigned) [Example 49, 2-(6-(6-((4-cyano-2-fluorobenzyl)oxy)pyridin-2-yl)isochroman-1-yl)-1-(2-methoxyethyl)-1H-benzo[d]imidazole-6-carboxylic acid]
- EC50 (GLP-1R): > 1000 nM
- Predicted Hepatic Clearance (Pred. Cl.) [1]: 13 mL/min/kg

Compound: N#Cc1ccc(COc2cccc(-c3cc(F)c(Cc4nc5ccc(C(=O)O)cc5n4[C@H]4COC[C@H]4F)cc3F)n2)c(F)c1 [Example 611]
- EC50 (GLP-1R): 0.29 nM
- Predicted Hepatic Clearance (Pred. Cl.) [1]: 4.83 mL/min/kg

Compound: COCCn1c(Cc2cc(F)c(-c3cccc(OCc4ccc(C(N)=O)nc4)n3)cc2F)nc2c(F)cc(C(=O)O)cc21 [Example 825]
- EC50 (GLP-1R): 9.09 nM
- Predicted Hepatic Clearance (Pred. Cl.) [1]: 1.83 mL/min/kg

Compound: COCCn1c(Cc2cc(F)c(-c3cccc(OCc4ccc(C(F)F)cc4F)n3)cc2F)nc2c(F)cc(C(=O)O)cc21 [Example 635]
- EC50 (GLP-1R): 0.46 nM
- Predicted Hepatic Clearance (Pred. Cl.) [1]: 1.83 mL/min/kg

Compound: COC(CNC(C)=O)Cn1c(Cc2ccc(-c3cccc(OCc4ccc(C#N)cc4F)n3)cc2F)nc2ccc(C(=O)O)cc21 (single isomer, unassigned) [Example 341, 1-(3-acetamido-2-methoxypropyl)-2-(4-(6-((4-cyano-2-fluorobenzyl)oxy)pyridin-2-yl)-2-fluorobenzyl)-1H-benzo[d]imidazole-6-carboxylic acid]
- EC50 (GLP-1R): 19.7 nM
- Predicted Hepatic Clearance (Pred. Cl.) [1]: 5.67 mL/min/kg

Compound: N#Cc1ccc(COc2nccc(-c3cc(F)c(Cc4nc5ccc(C(=O)O)cc5n4C[C@@H]4CCO4)cc3F)n2)c(F)c1 [Example 415, (S)-2-(4-(2-((4-cyano-2-fluorobenzyl)oxy)pyrimidin-4-yl)-2,5-difluorobenzyl)-1-(oxetan-2-ylmethyl)-1H-benzo[d]imidazole-6-carboxylic acid]
- EC50 (GLP-1R): 0.15 nM
- Predicted Hepatic Clearance (Pred. Cl.) [1]: 4.33 mL/min/kg

Compound: N#Cc1ccc(COc2cccc(-c3cc(F)c(Cc4nc5ccc(C(=O)O)cc5n4C[C@@H]4CCO4)cc3F)n2)c(OC(F)F)n1 [Example 858, (S)-2-(4-(6-((6-cyano-2-(difluoromethoxy)pyridin-3-yl)methoxy)pyridin-2-yl)-2,5-difluorobenzyl)-1-(oxetan-2-ylmethyl)-1H-benzo[d]imidazole-6-carboxylic acid]
- EC50 (GLP-1R): 2.27 nM
- Predicted Hepatic Clearance (Pred. Cl.) [1]: 8.83 mL/min/kg
